Non-standard residues stand in square brackets, D forms with d. No end group written: not given here. tri‑branched mPEG‑MAL 50 kDa = tri-branched maleimide-activated monomethoxy PEG, 50 kDa; Aib = CC(C)(N)C(=O)O
Legend:
Assay type in all cases: in vivo
[1] = tested on: obesity animal model (C57BL/6 mice, 60% high-fat diet); experiment: intraperitoneal glucose tolerance test (ipGTT) in obesity model after 2-week administration (Experimental Example 3); design: blood glucose in ipGTT: unit not given here; details: after 2 weeks of 20 nmol/kg s.c. once every other day
Method: This experiment was performed in the same manner as in Experimental Example 2, and then the glucose tolerance was evaluated in a mouse model using an intraperitoneal glucose tolerance test (ipGTT).
After the 2-weeks administration of the drugs was completed in the same manner as in Experimental Example 2, 2 g/kg of glucose was administered intraperitoneally to measure a change in blood glucose with the elapse of time (0, 15, 30, 60, 90, and 120 minutes).

db/db mice = experiment: ipGTT in db/db mice after 12-day administration; design: blood glucose in ipGTT: unit not given here; details: for blood glucose in ipGTT: db/db mice after 12 days of 20 nmol/kg s.c. once every other day
Method: Next, to perform an intraperitoneal glucose tolerance test (ipGTT), 2 g/kg of glucose was administered intraperitoneally after the 12-day administration of the drug, and a change in blood glucose with the elapse of time (0, 15, 30, 60, 90, and 120 minutes) was measured. To determine a degree of long-term change in average blood glucose level, a level of glycated hemoglobin (HbA1c) was also measured after the drug administration.

[2] = tested on: obesity animal model (C57BL/6 mice, 60% high-fat diet); experiment: ipGTT in obesity model, Examples 2 and 6 (Experimental Example 6); details: 2 g/kg glucose i.p. after 2 weeks of 20 nmol/kg s.c. once every other day; FIG. 6
Method: To check a preventing or therapeutic effect of the conjugates of Examples 2 and 6, which had different amino acid sequences, on obesity or diabetes, an animal model of obesity was prepared by feeding a 60% high-fat diet to normal C57BL/6 mice (approximately 6 weeks old) for approximately 24 weeks, and increasing the body weights of the mice to approximately 50 g in average. Thereafter, each of the conjugates of Examples 2 or 6 was administered by subcutaneous injection at a dose of 20 nmol/kg once every other day for 2 weeks. As the control, PBS was administered instead of the conjugates of Examples. For 2 weeks when the conjugates of Examples 2 or 6 were administered, changes in blood glucose with time were measured. Also, to perform an intraperitoneal glucose tolerance test (ipGTT), 2 g/kg of glucose was administered intraperitoneally after the 2-week administration of the drug, and changes in blood glucose with the elapse of time (0, 15, 30, 60, 90, and 120 minutes) were measured.

[3] = tested on: animal model of non-alcoholic fatty liver diseases (C57BL/6 mice, high-trans-fat diet); experiment: liver biopsy and NAFLD activity score, high-trans-fat diet model (Experimental Example 9); details: 20 nmol/kg s.c. once every three days for 4 weeks
Method: After the experiment was conducted in the same manner as in Experimental Example 8, a liver biopsy was conducted and an NAFLD activity score (NAS) was measured to check a preventing or therapeutic effect on non-alcoholic fatty liver diseases. An experiment was performed in the same manner as in Experimental Example 8, after the 4-week administration of the conjugate of Example 2, the mouse livers were extracted, embedded in paraffin, and then microtomed into thin slices. Thereafter, a hematoxylin & eosin (H&E) stain and an oil-red-O stain were conducted.

[4] = 0 min after 2 g/kg glucose i.p.
[5] = 15 min after 2 g/kg glucose i.p.
[6] = 30 min after 2 g/kg glucose i.p.
[7] = 60 min after 2 g/kg glucose i.p.
[8] = 90 min after 2 g/kg glucose i.p.
[9] = 120 min after 2 g/kg glucose i.p.

## Example 2: Conjugate of polypeptide H(Aib)QGTFTSDYSKYLDEQAAKEFVQWLMNTC (SEQ ID NO. 2) and tri-branched mPEG-MAL (MW: 50 kDa) (H[Aib]QGTFTSDYSKYLDEQAAKEFVQWLMNTC(tri‑branched mPEG‑MAL 50 kDa); lactam (positions not given here); not fully specified (bridges); printed as H(Aib)QGTFTSDYSKYLDEQAAKEFVQWLMNTC)
[1]; [4]
  blood glucose in ipGTT: 40
[1]; [5]
  blood glucose in ipGTT: 216
[1]; [6]
  blood glucose in ipGTT: 172
[1]; [7]
  blood glucose in ipGTT: 61
[1]; [8]
  blood glucose in ipGTT: 48
[1]; [9]
  blood glucose in ipGTT: 44
[1]
  increase in blood glucose in ipGTT vs non-treated group: an increase in blood glucose was significantly reduced
db/db mice; [4]
  blood glucose in ipGTT: 63
db/db mice; [5]
  blood glucose in ipGTT: 190
db/db mice; [6]
  blood glucose in ipGTT: 246
db/db mice; [7]
  blood glucose in ipGTT: 341
db/db mice; [8]
  blood glucose in ipGTT: 356
db/db mice; [9]
  blood glucose in ipGTT: 396
db/db mice; db/db mice after 12-day administration
  glucose tolerance in ipGTT: higher glucose tolerance than the non-treated group
[2]
  increase in blood glucose in ipGTT vs control: an increase in blood glucose was significantly reduced
[3]; FIG. 13
  hepatic steatosis vs non-treated group and positive control: significantly reduced
[3]; FIG. 14
  NAFLD activity score (NAS) vs non-treated group and positive control: significantly reduced
